Source: EP3426036B1, “CROP ENHANCEMENT” (priority 2016, dated 2017)

How the values were obtained:
Assay type in all cases: in vivo
[1] = test system: glutathione reductase; assay: Enzymatic analysis of soybean plants under drought conditions (Example 2a); conditions: 0.75 l/ha at R1 or R3
Experimental: Soybean plants were grown in pots. The plants were treated at R1 (36 days after sewing) or R3 (44 days after sewing) with the compound of formula I at 0.75 l/ha. An untreated control plant was also included. After treatment, the plants were subjected to drought conditions until the end of the trial at day 65. Five replicates of the control and each treatment were harvested for analysis of yield and enzymatic activity.

[2] = test system: bread wheat (Triticum aestivum L.) and durum wheat (Triticum durum Desf.); assay: Further wheat field trials under controlled and natural drought stress (Example 1e); conditions: for average grain yield increase compared to untreated check / mean TGW increase versus untreated check: multitrial analysis; for average grain yield increase compared to untreated check: all 26 disease-free modalities, 30 or 75 g ha^-1; for mean TGW increase versus untreated check: controlled and natural drought stress, 20 modalities; for grain yield increase compared to untreated check: only trials under controlled drought stress conditions
Text: Wheat field trials were designed as randomized complete blocks with six replicates. Sowing, fertilization and general crop maintenance were done in accordance to locally accepted best practice. Crop protection maintenance products were applied preventatively only if required across all trial area (check and experimental plots and boundary areas) including locally registered seed treatment products, herbicides and insecticides. In case of potential disease attack, DMI and/or contact fungicides were applied preventatively. Application of fungicides from Qo inhibitors (strobilurines) and SDHI groups were not allowed to avoid possible interaction with compound I experimental treatments. Any products with plant growth regulator effects were excluded as well. Pesticides were applied not less than three to four days before or after experimental applications of compound I.
Following assessments were taken: general phytotoxicity at 7 and 14 days after application, general pest damage ratings before harvest, grain yield adjusted to 10% standard moisture (calculation based on fresh grain weight and grain moisture at harvest), thousand grain weight (TGW) adjusted to 10% standard moisture.
Entire plots or only central treated areas were harvested manually using cutters with stationary threshers (trials located in Argentina, Egypt and India) or with small-plot combine-harvesters (trials located in France, Italy and USA).
Single trial statistical analysis of variance (ANOVA) was done with Agstat 1.6 / ACSAP 4.29. Multi-trial analysis was based on paired t-test with comparison of compound I experimental treatments versus untreated checks and was done with TIBCO® Spotfire® 7.0.1.
To minimize risk of environmental impacts from rain on drought stress period and level, all proposed locations were validated through internal Environment and Crop Modelling process. This modelling allowed to calculate the potential drought stress intensity through estimation of climatic cumulative water deficit (sum of all daily water deficit during reproductive stage of wheat development). Daily water deficit was calculated as difference between daily precipitation and daily evapotranspiration by wheat plants. Thirty-eight candidate locations were proposed as suitable for drought stress trials. We performed field trials at fifteen locations from which we present results from the eleven disease-free trials that originated from seven locations: Egypt (Kaha), Italy (Foggia), India (Dongargaon, Mandleshwar and Sanwer) and USA (Woodland, CA; Jerome, ID).
Each field trial had two adjacent blocks: well-watered (WW) block with untreated check plots used for stress level estimation and grain yield reference and water-stressed (WS) block with experimental treatments including untreated check plots. Plot size varied between trials from 8.45 m^2 (Woodland, US) up to 30 m^2 (Kaha, EG) and harvested plot size was from 8.45 m^2 (Woodland, US) up to 20.7 m^2 (India). Seven locally adapted drought sensitive commercial varieties of spring and winter bread wheat (Triticum aestivum L.) and durum wheat (Triticum durum Desf.) were tested: var. Massimo Meridio (Foggia, IT), var. Saha 94 and Sods 12 (Kaha, EG), var. GW322 and GW366 (India), var. Alturas (Jerome, US) and var. Summit 515 (Woodland, US).
To manage drought stress, three types of water irrigation systems were used: precise drip irrigation (Kaha, EG; Foggia, IT; Woodland, US), solid-set sprinkler irrigation (Jerome, US) and flood irrigation (all sites in India). Plants in WW blocks were well irrigated from sowing till harvest to compensate 100% of evapotranspiration demand, targeting the optimum yield achievable in the trial area. Plants in WS blocks were irrigated from planting till the beginning of pre-stress period exactly at the same level of water supply as in WW conditions. […]

[3] = test system: Soybean plants; assay: Crop enhancement effect on soybean under drought conditions, yield analysis (Example 2a); conditions: drought until day 65
Experimental: Soybean plants were grown in pots. The plants were treated at R1 (36 days after sewing) or R3 (44 days after sewing) with the compound of formula I at 0.75 l/ha. An untreated control plant was also included. After treatment, the plants were subjected to drought conditions until the end of the trial at day 65. Five replicates of the control and each treatment were harvested for analysis of yield and enzymatic activity. […]

[4] = test system: Durum wheat; assay: Crop enhancement effect on wheat under drought conditions in the field (Example 1c); conditions: for Protein content / Grain Yield / TGW / No. of grains per ear: 75.0 g a.i/ha at BBCH GS 39; for Grain Yield / TGW: adjusted to 10% standard moisture; for No. of grains per ear: average of 10 ears per plot
Experimental: Durum wheat (plot size 24m^2) was treated with a single application at BBCH GS 39 (flag leaf stage) with the compound of formula I at a rate of 75.0 g a.i/ha. The plants were split into non-irrigated (only rainfed) and irrigated with 50% of evapotranspiration compensation. Untreated check plants were also included in both water supply conditions. These water supply conditions were maintained during the reproductive stages of plant growth (BBCH 55-73). The trial was carried out with six replicates.
At the end of the trial, a 12m^2 plot was harvested from each of four replicates for each water supply condition. […]
In addition to the above factors, the Normalised Difference Vegetation Index (NDVI) was also assessed. This is an estimate of the photosynthetically absorbed radiation over the crop surfaces and allows an estimate of the Leaf Area Index in order to track plant growth and vigour. The NDVI was measured several times during the trial with two handheld crop devices with active light source optical sensors: GreenSeeker HCS-100 (7 measurements) and RapidSCAN CS-45 (5 measurements).

For `Cn1cc(C(=O)Nc2cccc3c2C2CCC3C2=C(Cl)Cl)c(C(F)F)n1` (stereo not drawn) [Compound I, benzovindiflupyr], the “production of the enzyme glutathione reductase compared to the untreated control” value [1] was “increase in the production of the enzyme glutathione reductase”, the general phytotoxicity ([2]; EC 100 at 30 or 75 g ha^-1, BBCH 39 to 55, all trials, 7 and 14 days after application) was “did not cause any phytotoxic effects” and the “average grain yield increase with 75 g ha^-1 compared to the rate of 30 g ha^-1” value ([2]; controlled drought stress conditions) was “+0.23 dt ha^-1”. The “average grain yield increase compared to untreated check” value [2] was “+5.2%”, the “average grain yield increase compared to untreated check” value ([2]; 95% CI +1.45 to +3.21 dt ha^-1) was “+2.33 dt ha^-1” and the “mean TGW increase versus untreated check” value [2] was “+1.9%”. The “mean TGW increase versus untreated check” value ([2]; 95 % CI [+0.23, +1.13] g 1000 seeds^-1) was 0.68 g 1000 seeds^-1, the “grain yield increase compared to untreated check” value [2] was “+6.0%” and the “grain yield increase compared to untreated check” value ([2]; 95% CI [+1.69, +4.03] dt ha^-1) was “+2.86 dt ha^-1”. For the same compound, the “TGW compared to untreated check” value ([2]; single trial ANOVA, p ≤ 0.05) was “did not detect any significant effect”, the “grain yield adjusted to 10% standard moisture compared to untreated check” value ([2]; single trial ANOVA, p ≤ 0.05) was “did not detect any significant effect” and the “Dry weight of pods” value ([3]; 0.75 l/ha @ R1) was 114.8 % of control. For the same compound, the “Dry weight of pods” value ([3]; 0.75 l/ha @ R3) was 122.7 % of control, the Protein content ([4]; 50% ET compensation) was 15.45% and the “Grain Yield” value ([4]; 50% ET compensation) was 60.60 dT/Ha. The TGW ([4]; 50% ET compensation) was 45.78 g, the “No. of grains per ear” value ([4]; 50% ET compensation) was 42.08 and the “Normalised Difference Vegetation Index (NDVI)” value ([4]; GreenSeeker HCS-100, BBCH 69(1), 50% ET compensation) was 0.820. The “Normalised Difference Vegetation Index (NDVI)” value ([4]; GreenSeeker HCS-100, BBCH 69(1), non-irrigated) was 0.788, the “Normalised Difference Vegetation Index (NDVI)” value ([4]; GreenSeeker HCS-100, BBCH 69(2), 50% ET compensation) was 0.787 and the “Normalised Difference Vegetation Index (NDVI)” value ([4]; GreenSeeker HCS-100, BBCH 69(2), non-irrigated) was 0.747. The “Normalised Difference Vegetation Index (NDVI)” value ([4]; GreenSeeker HCS-100, BBCH 73, 50% ET compensation) was 0.750, the “Normalised Difference Vegetation Index (NDVI)” value ([4]; GreenSeeker HCS-100, BBCH 73, non-irrigated) was 0.672 and the “Normalised Difference Vegetation Index (NDVI)” value ([4]; GreenSeeker HCS-100, BBCH 75-83, 50% ET compensation) was 0.705. The “Normalised Difference Vegetation Index (NDVI)” value ([4]; GreenSeeker HCS-100, BBCH 75-83, non-irrigated) was 0.557, the “Normalised Difference Vegetation Index (NDVI)” value ([4]; GreenSeeker HCS-100, BBCH 83-85, 50% ET compensation) was 0.673 and the “Normalised Difference Vegetation Index (NDVI)” value ([4]; GreenSeeker HCS-100, BBCH 83-85, non-irrigated) was 0.468. For the same compound, the “Normalised Difference Vegetation Index (NDVI)” value ([4]; GreenSeeker HCS-100, BBCH 85, 50% ET compensation) was 0.572, the “Normalised Difference Vegetation Index (NDVI)” value ([4]; GreenSeeker HCS-100, BBCH 85, non-irrigated) was 0.375 and the “Normalised Difference Vegetation Index (NDVI)” value ([4]; GreenSeeker HCS-100, BBCH 87, 50% ET compensation) was 0.464. The “Normalised Difference Vegetation Index (NDVI)” value ([4]; GreenSeeker HCS-100, BBCH 87, non-irrigated) was 0.185, the “Normalised Difference Vegetation Index (NDVI)” value ([4]; RapidSCAN CS-45, BBCH 69, 50% ET compensation) was 0.663 and the “Normalised Difference Vegetation Index (NDVI)” value ([4]; RapidSCAN CS-45, BBCH 69, non-irrigated) was 0.592. For the same compound, the “Normalised Difference Vegetation Index (NDVI)” value ([4]; RapidSCAN CS-45, BBCH 73, 50% ET compensation) was 0.657, the “Normalised Difference Vegetation Index (NDVI)” value ([4]; RapidSCAN CS-45, BBCH 73, non-irrigated) was 0.625 and the “Normalised Difference Vegetation Index (NDVI)” value ([4]; RapidSCAN CS-45, BBCH 83-85, 50% ET compensation) was 0.572. The “Normalised Difference Vegetation Index (NDVI)” value ([4]; RapidSCAN CS-45, BBCH 83-85, non-irrigated) was 0.393, the “Normalised Difference Vegetation Index (NDVI)” value ([4]; RapidSCAN CS-45, BBCH 85, 50% ET compensation) was 0.538 and the “Normalised Difference Vegetation Index (NDVI)” value ([4]; RapidSCAN CS-45, BBCH 85, non-irrigated) was 0.320. For the same compound, the “Normalised Difference Vegetation Index (NDVI)” value ([4]; RapidSCAN CS-45, BBCH 87, 50% ET compensation) was 0.204, the “Normalised Difference Vegetation Index (NDVI)” value ([4]; RapidSCAN CS-45, BBCH 87, non-irrigated) was 0.083 and the Protein content ([4]; non-irrigated) was 12.68%. For the same compound, the “Grain Yield” value ([4]; non-irrigated) was 57.73 dT/Ha, the TGW ([4]; non-irrigated) was 51.16 g and the “No. of grains per ear” value ([4]; non-irrigated) was 37.88.
